Laboratory results from patent US10131652B2, “Pyrimidinyloxy benzene derivatives as herbicides” (E. I. DU PONT DE NEMOURS AND COMPANY, priority 2014, dated 2018).
Read-outs that look alike come from different tables or passages of the source.

Legend:
Assay in all cases: Test D pre-/postemergence plant response
Assay type in all cases: in vivo
[1] = tested on: Italian ryegrass (Lolium multiflorum); settings: Lolium multiflorum; for pest or weed control at 62 g/ha: 62 g ai/ha; for pest or weed control at 125 g/ha: 125 g ai/ha
Outline: (§1)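 Visual injury scoring (0–100) at 13 to 15 days in greenhouse. Preemergence sprays on seeded loam/sand; postemergence sprays on 1–4 leaf plants.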

[2] = tested on: corn (Zea mays); settings: Zea mays; for Corn plant response rating (crop injury, 0 = no effect, 100 = complete kill) at 62 g/ha: 62 g ai/ha
Outline: as §1

[3] = tested on: winter wheat (Triticum aestivum); settings: Triticum aestivum; for plant injury at 31 g/ha: 31 g ai/ha; for plant injury at 62 g/ha: 62 g ai/ha; for plant injury at 125 g/ha: 125 g ai/ha
Outline: as §1

[4] = tested on: barnyardgrass (Echinochloa crus-galli); settings: Echinochloa crus-galli; for pest or weed control at 16 g/ha: 16 g ai/ha; for pest or weed control at 31 g/ha: 31 g ai/ha; for pest or weed control at 62 g/ha: 62 g ai/ha; for pest or weed control at 125 g/ha: 125 g ai/ha
Outline: as §1

[5] = tested on: large (Lg) crabgrass (Digitaria sanguinalis); settings: Digitaria sanguinalis; for pest or weed control at 16 g/ha: 16 g ai/ha; for pest or weed control at 31 g/ha: 31 g ai/ha; for pest or weed control at 62 g/ha: 62 g ai/ha; for pest or weed control at 125 g/ha: 125 g ai/ha
Outline: as §1

[6] = tested on: ragweed (common ragweed, Ambrosia elatior); settings: Ambrosia artemisiifolia; for pest or weed control at 31 g/ha: 31 g ai/ha; for pest or weed control at 62 g/ha: 62 g ai/ha; for pest or weed control at 125 g/ha: 125 g ai/ha
Outline: as §1

[7] = tested on: velvetleaf (Abutilon theophrasti); settings: Abutilon theophrasti; for pest or weed control at 31 g/ha: 31 g ai/ha; for pest or weed control at 62 g/ha: 62 g ai/ha; for pest or weed control at 125 g/ha: 125 g ai/ha
Outline: as §1

[8] = tested on: soybean (Glycine max); settings: Glycine max; for plant injury at 31 g/ha: 31 g ai/ha; for plant injury at 62 g/ha: 62 g ai/ha
Outline: as §1

[9] = tested on: pigweed (Amaranthus retroflexus); settings: Amaranthus retroflexus; for pest or weed control at 31 g/ha: 31 g ai/ha; for pest or weed control at 62 g/ha: 62 g ai/ha; for pest or weed control at 125 g/ha: 125 g ai/ha
Outline: as §1

[10] = post-emergence, Postemergence, scale 0 to 100, 0 no effect, 100 complete control, read-out: Plant response rating, Ryegrass, Italian
[11] = post-emergence, Postemergence, scale 0 to 100, 0 no effect, 100 complete control, read-out: Plant response rating, Wheat
[12] = pre-emergence, Preemergence, scale 0 to 100 (0 no effect, 100 complete control), read-out: Plant response rating, Wheat
[13] = post-emergence, Postemergence, scale 0 to 100 (0 no effect, 100 complete control), read-out: Barnyardgrass plant response rating
[14] = post-emergence, Postemergence, scale 0 to 100, 0 no effect, 100 complete control, read-out: Plant response rating, Barnyardgrass
[15] = pre-emergence, Preemergence, scale 0 to 100 (0 no effect, 100 complete control), read-out: Plant response rating, Barnyardgrass
[16] = post-emergence, Postemergence, scale 0 to 100 (0 no effect, 100 complete control), read-out: Crabgrass, Large plant response rating
[17] = post-emergence, Postemergence, scale 0 to 100, 0 no effect, 100 complete control, read-out: Plant response rating, Crabgrass, Large
[18] = pre-emergence, Preemergence, scale 0 to 100 (0 no effect, 100 complete control), read-out: Plant response rating, Crabgrass, Large
[19] = post-emergence, Postemergence, scale 0 to 100, 0 no effect, 100 complete control, read-out: Plant response rating, Ragweed
[20] = pre-emergence, Preemergence, scale 0 to 100 (0 no effect, 100 complete control), read-out: Plant response rating, Ragweed
[21] = post-emergence, Postemergence, scale 0 to 100, 0 no effect, 100 complete control, read-out: Plant response rating, Velvetleaf
[22] = pre-emergence, Preemergence, scale 0 to 100 (0 no effect, 100 complete control), read-out: Plant response rating, Velvetleaf
[23] = pre-emergence, Preemergence, scale 0 to 100 (0 no effect, 100 complete control), read-out: Plant response rating, Soybean
[24] = post-emergence, Postemergence, scale 0 to 100, 0 no effect, 100 complete control, read-out: Plant response rating, Pigweed
[25] = pre-emergence, Preemergence, scale 0 to 100 (0 no effect, 100 complete control), read-out: Plant response rating, Pigweed

Fc1cccc(Oc2ncc(Cl)cn2)c1-c1cc(C(F)F)no1 [Compound 144, 5-chloro-2-[2-[3-(difluoromethyl)-5-isoxazolyl]-3-fluorophenoxy]pyrimidine]
pest or weed control at 62 g/ha [1, 10]: 10%
pest or weed control at 125 g/ha [1, 10]: 10%
pest or weed control at 125 g/ha ([1]; pre-emergence, Preemergence, read-out: Plant response rating (scale 0 to 100), Ryegrass, Italian): 98%
pest or weed control at 16 g/ha ([1]; pre-emergence, Preemergence, 16 g ai/ha, scale 0 to 100 (0 no effect, 100 complete control), read-out: Plant response rating, Ryegrass, Italian): 5%
pest or weed control at 31 g/ha ([1]; pre-emergence, Preemergence, 31 g ai/ha, scale 0 to 100 (0 no effect, 100 complete control), read-out: Plant response rating, Ryegrass, Italian): 60%
pest or weed control at 62 g/ha ([1]; pre-emergence, Preemergence, scale 0 to 100 (0 no effect, 100 complete control), read-out: Plant response rating, Ryegrass, Italian): 80%
plant injury at 16 g/ha ([2]; post-emergence, Postemergence, 16 g ai/ha, scale 0 to 100 (0 no effect, 100 complete control), read-out: Corn plant response rating): 5%
plant injury at 31 g/ha ([2]; post-emergence, Postemergence, 31 g ai/ha, scale 0 to 100 (0 no effect, 100 complete control), read-out: Corn plant response rating): 5%
Corn plant response rating (crop injury, 0 = no effect, 100 = complete kill) at 62 g/ha ([2]; post-emergence, Postemergence, scale 0 to 100, 0 no effect, 100 complete control): 10%
Corn plant response rating (crop injury, 0 = no effect, 100 = complete kill) at 125 g/ha ([2]; post-emergence, Postemergence, 125 g ai/ha, scale 0 to 100, 0 no effect, 100 complete control): 5%
plant injury at 125 g/ha ([2]; pre-emergence, Preemergence, 125 g ai/ha, read-out: Plant response rating (scale 0 to 100), Corn): 65%
Corn plant response rating (crop injury, 0 = no effect, 100 = complete kill) at 16 g/ha ([2]; pre-emergence, Preemergence, 16 g ai/ha, scale 0 to 100 (0 no effect, 100 complete control)): 0%
Corn plant response rating (crop injury, 0 = no effect, 100 = complete kill) at 31 g/ha ([2]; pre-emergence, Preemergence, 31 g ai/ha, scale 0 to 100 (0 no effect, 100 complete control)): 5%
Corn plant response rating (crop injury, 0 = no effect, 100 = complete kill) at 62 g/ha ([2]; pre-emergence, Preemergence, scale 0 to 100 (0 no effect, 100 complete control)): 15%
plant injury at 31 g/ha ([3]; post-emergence, Postemergence, scale 0 to 100 (0 no effect, 100 complete control), read-out: Wheat plant response rating): 10%
plant injury at 62 g/ha [3, 11]: 10%
plant injury at 125 g/ha [3, 11]: 10%
plant injury at 125 g/ha ([3]; pre-emergence, Preemergence, read-out: Plant response rating (scale 0 to 100), Wheat): 25%
plant injury at 16 g/ha ([3]; pre-emergence, Preemergence, 16 g ai/ha, scale 0 to 100 (0 no effect, 100 complete control), read-out: Plant response rating, Wheat): 0%
plant injury at 31 g/ha [3, 12]: 5%
plant injury at 62 g/ha [3, 12]: 25%
pest or weed control at 16 g/ha [4, 13]: 5%
pest or weed control at 31 g/ha [4, 13]: 5%
pest or weed control at 62 g/ha [4, 14]: 10%
pest or weed control at 125 g/ha [4, 14]: 15%
pest or weed control at 125 g/ha ([4]; pre-emergence, Preemergence, read-out: Plant response rating (scale 0 to 100), Barnyardgrass): 100%
pest or weed control at 16 g/ha [4, 15]: 70%
pest or weed control at 31 g/ha [4, 15]: 80%
pest or weed control at 62 g/ha [4, 15]: 100%
pest or weed control at 16 g/ha [5, 16]: 5%
pest or weed control at 31 g/ha [5, 16]: 10%
pest or weed control at 62 g/ha [5, 17]: 15%
pest or weed control at 125 g/ha [5, 17]: 20%
pest or weed control at 125 g/ha ([5]; pre-emergence, Preemergence, read-out: Plant response rating (scale 0 to 100), Crabgrass, Large): 100%
pest or weed control at 16 g/ha [5, 18]: 90%
pest or weed control at 31 g/ha [5, 18]: 98%
pest or weed control at 62 g/ha [5, 18]: 100%
pest or weed control at 31 g/ha ([6]; post-emergence, Postemergence, scale 0 to 100 (0 no effect, 100 complete control), read-out: Ragweed plant response rating): 60%
pest or weed control at 62 g/ha [6, 19]: 70%
pest or weed control at 125 g/ha [6, 19]: 75%
pest or weed control at 125 g/ha ([6]; pre-emergence, Preemergence, read-out: Plant response rating (scale 0 to 100), Ragweed): 100%
pest or weed control at 16 g/ha ([6]; pre-emergence, Preemergence, 16 g ai/ha, scale 0 to 100 (0 no effect, 100 complete control), read-out: Plant response rating, Ragweed): 75%
pest or weed control at 31 g/ha [6, 20]: 85%
pest or weed control at 62 g/ha [6, 20]: 100%
pest or weed control at 31 g/ha ([7]; post-emergence, Postemergence, scale 0 to 100 (0 no effect, 100 complete control), read-out: Velvetleaf plant response rating): 55%
pest or weed control at 62 g/ha [7, 21]: 75%
pest or weed control at 125 g/ha [7, 21]: 98%
pest or weed control at 125 g/ha ([7]; pre-emergence, Preemergence, read-out: Plant response rating (scale 0 to 100), Velvetleaf): 100%
pest or weed control at 16 g/ha ([7]; pre-emergence, Preemergence, 16 g ai/ha, scale 0 to 100 (0 no effect, 100 complete control), read-out: Plant response rating, Velvetleaf): 100%
pest or weed control at 31 g/ha [7, 22]: 100%
pest or weed control at 62 g/ha [7, 22]: 100%
plant injury at 31 g/ha ([8]; post-emergence, Postemergence, scale 0 to 100 (0 no effect, 100 complete control), read-out: Soybean plant response rating): 80%
plant injury at 62 g/ha ([8]; post-emergence, Postemergence, scale 0 to 100, 0 no effect, 100 complete control, read-out: Plant response rating, Soybean): 95%
plant injury at 125 g/ha ([8]; pre-emergence, Preemergence, 125 g ai/ha, read-out: Plant response rating (scale 0 to 100), Soybean): 95%
plant injury at 16 g/ha ([8]; pre-emergence, Preemergence, 16 g ai/ha, scale 0 to 100 (0 no effect, 100 complete control), read-out: Plant response rating, Soybean): 35%
plant injury at 31 g/ha [8, 23]: 75%
plant injury at 62 g/ha [8, 23]: 90%
pest or weed control at 31 g/ha ([9]; post-emergence, Postemergence, scale 0 to 100 (0 no effect, 100 complete control), read-out: Pigweed plant response rating): 98%
pest or weed control at 62 g/ha [9, 24]: 100%
pest or weed control at 125 g/ha [9, 24]: 100%
pest or weed control at 125 g/ha ([9]; pre-emergence, Preemergence, read-out: Plant response rating (scale 0 to 100), Pigweed): 100%
pest or weed control at 16 g/ha ([9]; pre-emergence, Preemergence, 16 g ai/ha, scale 0 to 100 (0 no effect, 100 complete control), read-out: Plant response rating, Pigweed): 100%
pest or weed control at 31 g/ha [9, 25]: 100%
pest or weed control at 62 g/ha [9, 25]: 100%
